In US20240269139A1, “COMPOUNDS FOR TARGETED PROTEIN DEGRADATION OF KINASES” (DANA-FARBER CANCER INSTITUTE, INC., priority 2020, published 2024):
Read-outs that look alike come from different tables or passages of the source.

Experiments:
Assay type in all cases: cell-based
[1] = target: T1, protein kinases (human kinome) (Homo sapiens, UniProt P21709); settings: for logFC of EPHA1 (P21709): Experiment wp114; for logFC EPHA1: protein EPHA1 (P21709), experiment wp114, direction of change down
T1 sequence (P21709 26-976): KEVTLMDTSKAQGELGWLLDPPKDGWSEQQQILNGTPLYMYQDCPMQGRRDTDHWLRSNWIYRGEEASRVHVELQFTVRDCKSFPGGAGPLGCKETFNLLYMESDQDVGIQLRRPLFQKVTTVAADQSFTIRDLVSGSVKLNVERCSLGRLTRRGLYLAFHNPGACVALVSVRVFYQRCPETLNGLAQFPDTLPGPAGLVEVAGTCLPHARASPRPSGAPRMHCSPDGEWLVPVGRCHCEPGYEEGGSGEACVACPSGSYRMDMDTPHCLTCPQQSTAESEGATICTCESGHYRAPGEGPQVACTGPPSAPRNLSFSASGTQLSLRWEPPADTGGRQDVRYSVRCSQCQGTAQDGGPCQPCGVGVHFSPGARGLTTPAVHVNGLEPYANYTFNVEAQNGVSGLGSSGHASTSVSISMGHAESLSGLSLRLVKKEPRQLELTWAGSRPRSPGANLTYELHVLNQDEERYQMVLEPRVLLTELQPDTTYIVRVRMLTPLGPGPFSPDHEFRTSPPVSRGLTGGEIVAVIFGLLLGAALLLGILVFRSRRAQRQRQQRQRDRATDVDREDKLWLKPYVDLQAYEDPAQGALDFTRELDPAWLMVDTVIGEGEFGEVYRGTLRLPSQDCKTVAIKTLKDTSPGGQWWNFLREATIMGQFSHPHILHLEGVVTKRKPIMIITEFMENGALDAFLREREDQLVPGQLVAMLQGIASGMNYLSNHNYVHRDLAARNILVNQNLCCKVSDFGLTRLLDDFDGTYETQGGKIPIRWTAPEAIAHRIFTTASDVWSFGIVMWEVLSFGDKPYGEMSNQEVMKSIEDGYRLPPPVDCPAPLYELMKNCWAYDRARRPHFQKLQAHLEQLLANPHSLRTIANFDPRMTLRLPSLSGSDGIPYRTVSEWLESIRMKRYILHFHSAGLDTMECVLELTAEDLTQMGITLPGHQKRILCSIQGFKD

[2] = target: T2, protein kinases (human kinome) (Homo sapiens, UniProt Q9NWZ3); settings: for logFC: IRAK4 (Q9NWZ3-1)
T2 sequence (Q9NWZ3 1-460): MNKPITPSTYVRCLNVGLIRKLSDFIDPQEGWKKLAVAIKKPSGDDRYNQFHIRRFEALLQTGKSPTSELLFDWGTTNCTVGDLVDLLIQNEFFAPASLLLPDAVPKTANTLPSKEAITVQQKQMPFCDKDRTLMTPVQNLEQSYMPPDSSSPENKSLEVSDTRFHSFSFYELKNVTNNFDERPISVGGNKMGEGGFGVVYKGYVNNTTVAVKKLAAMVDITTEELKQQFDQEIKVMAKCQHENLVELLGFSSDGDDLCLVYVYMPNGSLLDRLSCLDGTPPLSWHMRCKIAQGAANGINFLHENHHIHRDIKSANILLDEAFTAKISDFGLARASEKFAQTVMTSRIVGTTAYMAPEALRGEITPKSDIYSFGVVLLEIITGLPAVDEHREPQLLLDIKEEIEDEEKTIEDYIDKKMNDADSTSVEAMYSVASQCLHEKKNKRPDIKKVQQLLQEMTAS

[3] = target: protein kinases (human kinome) (Homo sapiens, UniProt Q13882); settings: for logFC PTK6 (Q13882): Experiment wp114, direction of change down; for logFC: PTK6 (Q13882), experiment wp114
[4] = target: T3, protein kinases (human kinome) (Homo sapiens, UniProt Q96D53); settings: experiment wp137; for logFC: COQ8B (Q96D53-1)
T3 sequence (Q96D53 1-544): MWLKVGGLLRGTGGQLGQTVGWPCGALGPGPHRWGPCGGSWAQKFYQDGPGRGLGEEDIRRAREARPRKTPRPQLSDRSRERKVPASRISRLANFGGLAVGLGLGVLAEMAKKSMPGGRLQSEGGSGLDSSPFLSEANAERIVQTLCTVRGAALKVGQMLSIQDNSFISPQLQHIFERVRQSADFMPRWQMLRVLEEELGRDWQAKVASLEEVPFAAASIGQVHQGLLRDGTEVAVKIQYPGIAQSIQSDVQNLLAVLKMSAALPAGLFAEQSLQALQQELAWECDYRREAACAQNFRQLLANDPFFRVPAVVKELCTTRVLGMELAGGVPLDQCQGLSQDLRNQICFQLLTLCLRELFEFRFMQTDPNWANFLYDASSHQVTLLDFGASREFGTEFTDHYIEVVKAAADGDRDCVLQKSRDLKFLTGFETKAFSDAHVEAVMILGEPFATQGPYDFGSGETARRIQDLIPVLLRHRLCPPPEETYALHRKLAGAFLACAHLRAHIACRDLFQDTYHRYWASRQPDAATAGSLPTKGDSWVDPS

protein kinases (human kinome) (Homo sapiens, UniProt Q13882), sequence (Q13882 whole entry): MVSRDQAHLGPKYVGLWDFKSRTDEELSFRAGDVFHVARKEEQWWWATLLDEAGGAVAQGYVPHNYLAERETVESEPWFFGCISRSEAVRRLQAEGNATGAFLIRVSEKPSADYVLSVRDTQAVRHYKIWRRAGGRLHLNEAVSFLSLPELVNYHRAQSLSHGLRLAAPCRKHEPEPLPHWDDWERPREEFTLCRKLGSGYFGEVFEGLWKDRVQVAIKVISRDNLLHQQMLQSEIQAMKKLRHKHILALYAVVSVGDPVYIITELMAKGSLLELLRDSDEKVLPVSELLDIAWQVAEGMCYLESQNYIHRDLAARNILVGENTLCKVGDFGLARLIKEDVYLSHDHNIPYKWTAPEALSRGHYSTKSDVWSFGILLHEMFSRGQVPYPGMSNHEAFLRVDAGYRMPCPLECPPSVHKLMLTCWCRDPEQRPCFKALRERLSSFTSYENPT

Row | SMILES | logFC of EPHA1 (P21709) [1] | logFC EPHA1 [1] | logFC ([2]; experiment wp131) | logFC of IRAK4 (Q9NWZ3-1) ([2]; experiment wp131) | logFC PTK6 (Q13882) [3] | logFC [3] | logFC [4] | logFC of COQ8B (Q96D53-1) [4] | also measured
1 | Cc1ncsc1-c1ccc([C@H](C)NC(=O)[C@@H]2C[C@@H](O)CN2C(=O)[C@@H](NC(=O)CCOCCOCCN2CCN(c3ccc(Nc4ncc(Cl)c(Nc5ccccc5S(=O)(=O)C(C)C)n4)cc3)CC2)C(C)(C)C)cc1 [FMF.06.098.1] | −0.422 | −0.422 | −0.7086 | −0.7086 | −0.4401 | −0.4401 | – | – | logFC of IRAK4 (Q9NWZ3-1) ([2]; Experiment wp108): −0.6505; logFC ([2]; experiment wp108): −0.6505
2 | CC(C)S(=O)(=O)c1ccccc1Nc1nc(Nc2ccc(N3CCN(CCOCCOCCNC(=O)CNc4cccc5c4C(=O)N(C4CCC(=O)NC4=O)C5=O)CC3)cc2)ncc1Cl (centres unmarked) [TL12.186] | – | – | −0.4293 | −0.4293 | – | – | −0.4934 | −0.4934 | logFC ([2]; experiment wp137): −0.4185; logFC of IRAK4 (Q9NWZ3-1) ([2]; experiment wp137): −0.4185
3 | Cc1ccc(C(=O)Nc2ccc(CN3CCN(CCCOCCOCCOCCNC(=O)COc4cccc5c4C(=O)N(C4CCC(=O)NC4=O)C5=O)CC3)c(C(F)(F)F)c2)cc1C#Cc1cnc2cccnn12 (centres unmarked) [SB1.G.187] | −0.3552 | −0.3552 | – | – | – | – | – | – | –
4 | CC(C)(C)c1nc(-c2cccc(NS(=O)(=O)c3c(F)cccc3F)c2F)c(-c2ccnc(NCCOCCNC(=O)CCOCCOCCNc3cccc4c3C(=O)N(C3CCC(=O)NC3=O)C4=O)n2)s1 (centres unmarked) [DD.03.106] | – | – | – | – | – | – | −0.3442 | −0.3442 | –
5 | CC(C)S(=O)(=O)c1ccccc1Nc1nc(Nc2ccc(N3CCN(CCOCCNC(=O)CNc4cccc5c4C(=O)N(C4CCC(=O)NC4=O)C5=O)CC3)cc2)ncc1Cl (centres unmarked) [SK.3.91] | – | – | – | – | −0.4171 | −0.4171 | – | – | –
